What was measured:
human VR1 receptors = molecular target: T1, human VR1 receptors (Homo sapiens, UniProt Q8NER1); assay: Human VR1 antagonist assay (Ca2+ imaging); assay type: cell-based; details: cells expressing human VR1, fura-2 Ca2+ imaging, FDSS 6000; capsaicin (300 nM) or acid (pH5.8) stimulation, table does not say which
T1 construct: host or cells: cells highly expressing human VR1; cell type not specified
In short: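 Human VR1-expressing cells loaded with 5 μM fura-2/AM for 1 h, resuspended at 3.75×10^5 cells/ml and preincubated 15 min at room temperature in the dark with compound. Stimulation by 300 nM capsaicin in KRH buffer pH 7.3, or by acid (HBSS/MES, final pH 5.8) from HBSS-HEPES pH 7.4; fluorescence (ex 340/380 nm, em 510-520 nm) monitored from 1 min before addition for 5 min.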

[1] = human, microsomes, pH 7.4

T1 sequence (Q8NER1 whole entry): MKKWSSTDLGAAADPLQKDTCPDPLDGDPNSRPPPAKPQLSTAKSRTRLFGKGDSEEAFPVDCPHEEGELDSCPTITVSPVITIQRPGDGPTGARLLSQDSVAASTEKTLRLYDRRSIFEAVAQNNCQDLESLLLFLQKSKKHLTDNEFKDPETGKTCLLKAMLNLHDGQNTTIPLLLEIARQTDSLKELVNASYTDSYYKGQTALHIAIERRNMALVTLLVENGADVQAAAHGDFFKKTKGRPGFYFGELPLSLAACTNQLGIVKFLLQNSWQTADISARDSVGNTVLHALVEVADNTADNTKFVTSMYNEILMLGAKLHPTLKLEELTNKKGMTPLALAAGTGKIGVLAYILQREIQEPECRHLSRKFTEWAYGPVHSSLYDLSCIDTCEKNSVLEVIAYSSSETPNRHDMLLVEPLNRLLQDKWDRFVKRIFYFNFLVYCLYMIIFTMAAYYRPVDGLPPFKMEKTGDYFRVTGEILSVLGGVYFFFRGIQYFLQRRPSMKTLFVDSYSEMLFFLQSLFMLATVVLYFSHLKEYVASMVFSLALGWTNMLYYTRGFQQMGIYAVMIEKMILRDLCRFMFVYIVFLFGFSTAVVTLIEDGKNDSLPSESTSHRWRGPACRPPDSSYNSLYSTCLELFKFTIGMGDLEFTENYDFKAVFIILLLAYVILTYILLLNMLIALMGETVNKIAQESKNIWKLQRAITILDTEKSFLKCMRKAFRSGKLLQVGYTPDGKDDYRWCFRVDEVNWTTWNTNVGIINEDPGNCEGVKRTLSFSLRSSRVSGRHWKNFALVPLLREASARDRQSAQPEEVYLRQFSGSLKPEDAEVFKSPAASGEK

IC50 (human VR1 receptors): 3.01 nM | T1/2 [1]: 1.95 h
Substance: N-((1R)-1-{3,5-Difluoro-4-[(methylsulfonyl)amino]phenyl}ethyl)-2-[3,5-difluoro-4-(2,2,2-trifluoro-1-dimethylethyl)phenyl]-2-methylcyclopropanecarboxamide [Example 80]
